Data published in US20250325573A1, “Anti-Cancer Saccharide-Linked Dithiocarbamate Compounds” (Anglia Ruskin University Higher Education Corporation, priority 2022, published 2025).

Columns and labels:
Type in all cases: cell-based
MDA-MB-231 = assay: MTT cytotoxicity assay, breast cancer cell line MDA-MB-231
[1] = tested on: lung cancer cell line A549; assay: Microscopy images of lung cancer cells A549; conditions: for cytotoxicity against lung cancer cells (microscopy): with and without copper(II) 10 μM, boosted by adding copper
[2] = tested on: breast cancer cell line MDA-MB-231; assay: Microscopy images of breast cancer cells MDA-MB-231; conditions: for concentration showing apoptotic signs (shrinkage, cell detachment, membrane blebbing): 24 hours of incubation
H630 WT = assay: MTT cytotoxicity assay, colorectal cancer cell line H630 WT; conditions: 72 h
Procedure: (§1) The H630 WT (passage 12-21) and H630 R10 (passage 4-13) cells were seeded in 96-well plates at seeding density of 1×10^4 cells/well in Dulbecco's modified Eagle's medium (DMEM) with 10% FBS, 1 mM sodium pyruvate, 2 mM L-glutamine and 0.1 mM non-essential amino acids. Cells were incubated at 37° C., 5% CO2 and 95% relative humidity. Cells were constantly exposed to different concentrations of the tested compound in combination with 10 μM of CuCl2 for 72 h and then subjected to a standard 3-(4,5-Dimethylthiazol-2-yl)-2,5-Diphenyltetrazolium bromide (MTT) assay. The experiments were carried out in triplicates and the IC50 values were calculated (see FIG. 2).

A549 = assay: MTT cytotoxicity assay, lung cancer cell line A549
H630 R10 = assay: MTT cytotoxicity assay, colorectal cancer cell line H630 R10 (resistant to 5FU 10 μM); conditions: 72 h
Procedure: as §1
5FU was purchased from Sigma Aldrich, Dorset, UK.

[3] = tested on: colorectal cancer cell line H630 WT; assay: Microscopy images of colorectal cancer cells H630 WT; conditions: 500 μM, copper(II) 10 μM, 72 hours
[4] = comparative agent as listed, no added metal named
[5] = Homo sapiens, NCI-H630, with Cu (10 μM CuCl2)
[6] = Homo sapiens, A549, 72 h, with Cu (10 μM CuCl2)
[7] = Homo sapiens, MDA-MB-231, 72 h, with Cu (10 μM CuCl2)
[8] = Homo sapiens, MDA-MB-231, 72 h, without copper(II)
[9] = Homo sapiens, NCI-H630, comparative agent as listed, no added metal named

SMILES: CCN(CC)C(=S)SC1O[C@H](CO)[C@@H](O)[C@H](O)[C@H]1O (stereo in doubt) [Ga-DDC, Galactosyl diethyldithiocarbamate]
- IC50 (MDA-MB-231; with Cu (10 μM CuCl2), 72 h): 17.7 ± 8.2 µM

SMILES: O=CC[C@@H](O)[C@H](O)[C@H](O)CO [2-deoxy-glucose, reference compound]
- cytotoxic effect (microscopy) ([1]; 1 mM, with or without copper(II), 72 h): no cytotoxic effect
- concentration showing slight toxicity effect (cells started to detach) ([1]; without copper(II), 24 hours): 8 mM
- features of apoptosis ([2]; 1000 μM, with copper(II) 10 μM, 24 hours): no features of apoptosis
- concentration showing slight toxicity effect (cells started to detach) ([2]; without copper(II), 24 hours): 8 mM

SMILES: CCN(CC)C(=S)[S-].CCN(CC)C(=S)[S-].[Cu+2] [(DDC)2Cu, Cu(II) bis(N,N-diethyldithiocarbamate) complex, reference compound]
- IC50 (H630 WT; [4]): 5.9 ± 1.1 µM
- IC50 (A549; comparative agent as listed, no added metal named, 72 h): 3.6 ± 0.7 µM
- IC50 (H630 R10; [4]): 4.9 ± 1.6 µM

SMILES: CCN(CC)C(=S)SC1OC(CO)C(O)C(O)C1NC(C)=O (stereo not shown) [AG-DDC, 2-N-acetyl-glycosylamine diethyldithiocarbamate]
- IC50 (H630 WT; [5]): 5.8 ± 1.2 µM

SMILES: CCN(CC)C(=S)SC1CC(O)C(O)C(CO)O1 (stereo not shown) [DG-DDC, 2-Deoxy-glycosyl diethyldithiocarbamate]
- observation in cells (microscopy) [3]: Cu(II) bis(N,N-diethyldithiocarbamate) complex crystals
- IC50 (H630 WT; [5]): 5.2 ± 1.7 µM
- IC50 (A549; [6]): 2.79 ± 0.25 µM
- IC50 (A549; Homo sapiens, A549, 72 h, with Zn (ZnCl2 10 μM)): 49.6 ± 18.6 µM
- IC50 (MDA-MB-231; [7]): 3.62 ± 0.22 µM
- IC50 (MDA-MB-231; [8]): 2060 ± 54.7 µM
- cytotoxicity against lung cancer cells (microscopy) ([1]; 72 h): cytotoxic
- toxic effect compared to glycosyl diethyldithiocarbamate at similar concentrations ([1]; without copper(II), 24 hours): more toxic effect
- IC50 (H630 R10; [5]): 5.3 ± 0.9 µM
- concentration showing apoptotic signs (shrinkage, cell detachment, membrane blebbing) ([2]; with copper(II) 10 μM): 25 µM
- toxic effect compared to glycosyl diethyldithiocarbamate at similar concentrations ([2]; without copper(II), 24 hours): more toxic effect

SMILES: CCN(CC)C(=S)SSC(=S)N(CC)CC [DS, disulfiram, reference compound]
- IC50 (MDA-MB-231; [8]): > 8000 µM

SMILES: O=c1[nH]cc(F)c(=O)[nH]1 [Example 5FU, fluorouracil, reference compound]
- IC50 (H630 WT; [9]): 4.6 ± 1.6 µM
- IC50 (H630 R10; [9]): 462 ± 8 µM

SMILES: CCN(CC)C(=S)SC1O[C@H](CO)[C@@H](O)[C@H](O)[C@H]1O (stereo partly shown) [G-DDC, Glycosyl diethyldithiocarbamate]
- IC50 (H630 WT; [5]): 127 ± 13.2 µM
- IC50 (A549; [6]): 95.9 ± 21.3 µM
- IC50 (MDA-MB-231; [8]): 2180 ± 356 µM
- IC50 (MDA-MB-231; with Cu (10 μM CuCl2), 72 h): 348 ± 44.7 µM
- cytotoxicity against lung cancer cells (microscopy) ([1]; 72 h): cytotoxic
- concentration showing signs of apoptosis (shrinkage, cell detachment) ([1]; without copper(II), 24 hours): 8 mM
- concentration showing slight toxicity effect (cells started to detach) ([1]; without copper(II), 24 hours): 4 mM
- concentration showing apoptotic signs (shrinkage, cell detachment, membrane blebbing) ([2]; with copper(II) 10 μM): 250 µM
- concentration showing signs of apoptosis (shrinkage, cell detachment) ([2]; without copper(II), 24 hours): 8 mM
- concentration showing slight toxicity effect (cells started to detach) ([2]; without copper(II), 24 hours): 4 mM

SMILES: CCN(CC)C(=S)SC1O[C@H](CO)[C@@H](O[C@@H]2O[C@H](CO)[C@H](O)[C@H](O)[C@H]2O)[C@H](O)[C@H]1O (stereo partly shown) [La-DDC, Lactosyl diethyldithiocarbamate]
- IC50 (MDA-MB-231; [7]): 89.7 ± 12.6 µM

SMILES: CCN(CC)C(=S)SC1O[C@H](CO)[C@@H](O)[C@H](O)[C@@H]1O (stereo partly shown) [Ma-DDC, Mannosyl diethyldithiocarbamate]
- IC50 (MDA-MB-231; [7]): 78.6 ± 12.6 µM

SMILES: CCN(CC)C(=S)SC1O[C@H](COC(C)=O)[C@@H](OC(C)=O)[C@H](OC(C)=O)[C@H]1OC(C)=O (stereo partly drawn) [Tetra-DDC, β-D-glucopyranose, 1-thio-, 2,3,4,6-tetraacetate 1-(N,N-diethylcarbamodithioate)]
- IC50 (A549; [6]): 53.4 ± 11.5 µM

SMILES: CCN(CC)C(=S)SC1OC[C@@H](O)[C@H](O)[C@H]1O (stereo partly shown) [XY-DDC, Xylosyl diethyldithiocarbamate]
- IC50 (H630 WT; [5]): 6.9 ± 2.6 µM
